Source: patent US20120070443A1, “PDE1 AS A TARGET THERAPEUTIC IN HEART DISEASE” (UNIVERSITY OF UTAH RESEARCH FOUNDATION, priority 2008, published 2012)
Entries after “also recorded” stand apart in the source; their conditions may differ. Read-outs that look alike come from different tables or passages of the source.

Experiments:
[1] = test system: isoproterenol-induced cardiac hypertrophy; settings: rats, cited from earlier work
ischemic injury [2] = settings: rabbit model; cited from earlier work
ischemic injury [3] = settings: mouse model; cited from earlier work
[4] = test system: isolated mouse ventricular myocytes; settings: cited from earlier work
[5] = test system: cGMP-hydrolytic activity in preparations from human left ventricles (PDE1); assay: cGMP-hydrolytic activity in preparations from human left ventricles; assay type: biochemical; settings: human left ventricle, 0.1 μM cGMP
Method: Similar studies were carried out in preparation from human myocardium [Vandeput 2009]. […] From this it was inferred that PDE1 inhibition can have cardioprotective and other beneficial effects in human myocardium.

PDE1 [6] = assay: cGMP-hydrolytic activity in mouse left ventricle preparations, Ca2+-dependent (Ca2+/calmodulin-stimulated) activity (PDE1)
Method: (§1) Measurements were made in the presence and absence of calcium and calmodulin as described in Vandeput et al 2009. All measurements were made at a cGMP concentration of 0.1 μM. ‘Ca^2+-independent activity’ refers to activity measured in the absence of calcium and calmodulin; this includes PDE5 activity and unstimulated PDE1 activity. ‘Ca^2+-dependent activity’ refers to activity measured in the presence of calcium and calmodulin minus activity measured in their absence (i.e., minus Ca^2+-independent activity); this activity is comprised solely of Ca^2+/calmodulin-stimulated PDE1 activity.
(§2) The effects of sildenafil on cGMP-hydrolytic activity in preparations from normal (pre-diseased) and diseased mouse left ventricle were then examined [Vandeput 2009].

doxorubicin toxicity = settings: mouse model of doxorubicin toxicity; cited from earlier work
PDE1 [7] = assay: cAMP-hydrolytic activity in preparations from normal and infarcted mouse hearts; settings: 1 μM (1000 nM) sildenafil
PDE5 = settings: 1 μM (1000 nM) sildenafil; mouse left ventricle; 0.1 μM cGMP
Method: as §1, §2

[8] = test system: left anterior descending coronary artery ligation; settings: mice, left anterior descending coronary arteries ligated; cited from earlier work
[9] = test system: hypertrophy following aortic constriction; settings: mice; cited from earlier work
[10] = test system: cGMP-hydrolytic activity in preparations from mouse left ventricles; assay: cGMP-hydrolytic activity in preparations from mouse left ventricle (total activity); settings: 0.1 μM cGMP
Method: as §1, §2

CCCc1nn(C)c2c(=O)[nH]c(-c3cc(S(=O)(=O)N4CCN(C)CC4)ccc3OCC)nc12 [sildenafil]
survival ([1]; isoproterenol-induced cardiac hypertrophy): increase in survival | development of isoproterenol-induced cardiac hypertrophy [1]: block the development | infarct size following ischemic injury (ischemic injury [2]): reduces infarct size | infarct size following ischemic injury (ischemic injury [3]): reduces infarct size | apoptotic consequences of hypoxia [4]: protects against | inhibition of cGMP-hydrolytic activity ([5]; 10 nM sildenafil): no inhibition of cGMP-hydrolytic activity could be detected | inhibition of cGMP-hydrolytic activity ([5]; 1 μM (1000 nM) sildenafil): significant inhibition; also recorded: profound | inhibition of PDE1 (cGMP hydrolysis) (PDE1 [6]; 10 nM sildenafil, 0.1 μM cGMP): not PDE1 | inhibition of PDE1 (cGMP hydrolysis, Ca2+/calmodulin-stimulated activity) (PDE1 [6]; 1 μM (1000 nM) sildenafil, 0.1 μM cGMP): inhibiting both PDE5 and PDE1; also recorded: inhibits PDE1 activity | magnitude of inhibition attributable to PDE1 relative to that attributable to PDE5 (PDE1 [6]; 1 μM sildenafil, cGMP hydrolysis): much greater magnitude | apoptosis (doxorubicin toxicity): anti-apoptotic effects | development of contractile dysfunction (doxorubicin toxicity): protect against the development of contractile dysfunction | inhibition of cAMP-hydrolytic activity (PDE1 [7]; normal and infarcted mouse hearts, absence of calcium and calmodulin): inhibits cAMP-hydrolytic activity; also recorded: significantly inhibits | relative inhibition of cAMP-hydrolytic activity (PDE1 [7]; presence of calcium and calmodulin, compared with their absence): of greater magnitude | inhibition of PDE5 (cGMP hydrolysis) (PDE5): inhibiting both PDE5 and PDE1 | apoptosis and survival [8]: anti-apoptotic and survival benefits | development of hypertrophy following aortic constriction [9]: blocks and reverses | inhibition of cGMP-hydrolytic activity ([10]; 10 nM sildenafil, normal (pre-diseased) and diseased mouse left ventricle): some inhibition | inhibition of cGMP-hydrolytic activity ([10]; 1 μM sildenafil, compared with 10 nM, normal and diseased mouse left ventricle): Inhibition was greater
